# Source: ChEMBL document CHEMBL5029199, “Increased Molecular Flexibility Widens the Gap between K i and K d values in Screening for Retinoid X Receptor Modulators” (ACS Med Chem Lett, 2022)
# pKd, pKi: −log10 of the molar value. Calls of active or inactive are those of the source. No cut-off for these calls is given here.
# Columns and labels:
# [1] = biological target: T1, Retinoic acid receptor RXR-alpha (Homo sapiens, UniProt P19793); experiment: Displacement of NEt-C343 from human RXRalpha-LBD expressed in African green monkey COS-1 cells assessed as inhibition constant incubated for 2 hrs by competitive binding assay; type: cell-based
# T1 sequence (P19793 whole entry): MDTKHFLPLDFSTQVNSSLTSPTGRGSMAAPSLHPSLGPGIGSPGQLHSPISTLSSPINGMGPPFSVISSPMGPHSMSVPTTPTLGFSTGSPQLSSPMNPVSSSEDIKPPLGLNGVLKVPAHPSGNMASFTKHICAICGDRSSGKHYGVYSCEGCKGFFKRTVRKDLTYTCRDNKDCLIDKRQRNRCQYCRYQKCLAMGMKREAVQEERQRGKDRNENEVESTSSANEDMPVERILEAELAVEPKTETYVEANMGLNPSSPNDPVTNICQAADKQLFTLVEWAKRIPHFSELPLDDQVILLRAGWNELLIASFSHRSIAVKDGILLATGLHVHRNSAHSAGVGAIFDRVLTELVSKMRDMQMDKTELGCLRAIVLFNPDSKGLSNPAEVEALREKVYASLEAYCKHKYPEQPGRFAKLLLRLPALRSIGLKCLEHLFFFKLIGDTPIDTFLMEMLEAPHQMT
# Homo sapiens = species on record: Homo sapiens; experiment: Ratio of Ki for displacement of NEt-C343 from human RXRalpha-LBD expressed in African green monkey COS-1 cells to Kd for binding affinity to human RXRalpha-LBD expressed in African green monkey COS-1 cells; type: cell-based
# [2] = biological target: T1, Retinoic acid receptor RXR-alpha; experiment: Binding affinity to human RXRalpha-LBD expressed in African green monkey COS-1 cells assessed as dissociated constant incubated for 2 hrs by tryptophan fluorescence quenching assay; type: cell-based
# [3] = biological target: T2, Retinoic acid receptor RXR-alpha (Homo sapiens) (UniProt P19793); experiment: Antagonist activity at human RXR-alpha expressed in African green monkey COS-1 cells assessed as reduction in NEt-TMN-induced receptor transactivation by measuring shift in concentration-response curve at 1 uM by luciferase reporter gene assay
# T2 sequence (whole entry): T1 sequence (P19793 whole entry)
# [4] = Drug uptake in African green monkey COS-1 cells at 10 uM measured after 24 hrs by trypan blue staining based LC-MS/MS analysis; type: ADME, cell-based; conditions: chlorocebus aethiops, cos-1, 24 h
# [5] = biological target: T1, Retinoic acid receptor RXR-alpha; experiment: Antagonist activity at human RXR-alpha expressed in African green monkey COS-1 cells assessed as reduction in bexarotene-induced receptor transactivation at 1 uM by luciferase reporter gene assay; type: cell-based; conditions: read-out: pA2 (converted)
# [6] = biological target: T1, Retinoic acid receptor RXR-alpha; experiment: Antagonist activity at human RXR-alpha expressed in African green monkey COS-1 cells assessed as reduction in NEt-TMN-induced receptor transactivation at 1 uM by luciferase reporter gene assay; type: cell-based; conditions: read-out: pA2 (converted)
SMILES,pKi [1],Ratio (Homo sapiens),pKd [2],Activity [3],Drug uptake [4],Kb [5],Kb [6]
CCCCCCOc1cc2c(cc1-n1nnc3cc(C(=O)O)ccc31)C(C)(C)CCC2(C)C,5.50,4.48,6.15,inactive,81.6 pg/10^4 cells,,
CCCCCCOc1cc2c(cc1-n1c(C(F)(F)F)nc3cc(C(=O)O)ccc31)C(C)(C)CCC2(C)C,,,,,55.1 pg/10^4 cells,,
CCCCCOc1cc2c(cc1-n1nnc3cc(C(=O)O)ccc31)C(C)(C)CCC2(C)C,5.45,4.63,6.12,inactive,10.2 pg/10^4 cells,,
CCCCCOc1cc2c(cc1-n1c(C(F)(F)F)nc3cc(C(=O)O)ccc31)C(C)(C)CCC2(C)C,6.42,1.39,6.56,,14.8 pg/10^4 cells,8.71 nM,26.3 nM
